The subject of test [1] is hippocampal slices from transgenic APP/PS1 mice. In words: Electrophysiology and long-term potentiation in hippocampal slices. To be noted: slices from APP/PS1 mouse, 5 μM, 60 min after theta burst stimulation. On the procedure: Hippocampal slices were prepared as described in Ardiles et al., Pannexin 1 regulates bidirectional hippocampal synaptic plasticity in adult mice. Front Cell Neurosci, vol. 8, art. 326 (2014). Six to eleven-month-old WT C57BL/6 or transgenic APP/PS1 mice (Jackson Lab 34829-JAX) were deeply anesthetized with isoflurane and their brains were quickly removed. 5-10 slices (350 μm) from each animal were dissected in ice-cold dissection buffer using a vibratome (Leica VT1200S, Leica Microsystems, Nussloch, Germany). Slices were incubated with 5 μM ISRIB, 5 μM compound 3, 1 μM compound 152, or a vehicle (complete medium containing 0.1% DMSO) 20 min before conditioning stimulation. Synaptic responses were evoked by stimulating the Schaffer collaterals with 0.2 ms pulses delivered through concentric bipolar stimulating electrodes, and recorded extracellularly in the stratum radiatum of the CA1 subfield. Long-term potentiation (LTP) was induced by four-theta burst stimulation (TBS) (10 trains of four pulses at 100 Hz; 5 Hz inter-burst interval) delivered at 0.1 Hz. LTP magnitude based on field excitatory postsynaptic potential (fEPSP) was calculated as the average (normalized to baseline) of the responses recorded 60 min after conditioning stimulation. Similar experiments can be performed using a different test compound in place of ISRIB, compound 3, or compound 152.

The test system of the next test is fasted Balb/c mice. In words: Fasting-induced muscle atrophy. In kind it is in vivo, mouse. On the procedure: Wild type eight-weeks-old male Balb/c mice obtained from the vivarium Fundacion Ciencia & Vida Chile (Santiago, Chile) were used. Mice were housed in independent plastic cages in a room maintained at 25° C. with a 12-h:12-h light:dark cycle.
Twenty-four hours before and during the 2 days of fasted procedures, animals received oral administration via feeding tubes (15 gauge) of vehicle (50% Polyethylene glycol 400 (Sigma-Aldrich P3265) in distilled water or 10 mg/kg of compound 3 formulated in vehicle solution.
After 2 days of fasting the animals were sacrificed and muscles were removed from both hindlimbs. Mice with feed and water ad libitum were used as control.
For in vivo measurements of protein synthesis, puromycin (Sigma-Aldrich, P8833) was prepared at 0.04 μmol/g body weight in a volume of 200 μL of PBS, and subsequently administered into the animals via IP injection, 30 min prior to muscle collection.
Upon collection, muscles were immediately frozen in liquid nitrogen and then stored at −80° C. […] Protein concentration in supernatants was determined using BCA Protein Assay Kit (Pierce). […]
Puromycin (12D10) (Merck Millipore) and β-actin (Sigma-Aldrich) antibodies were used as primary antibodies. […] Quantification of protein bands was done by densitometry using ImageJ software. […]

The test system of a further test is CHO cells. Kind of test: Protein translation assay (puromycin incorporation in CHO cells, unstressed or Tg-stressed). In kind it is cell-based, Chinese hamster. To be noted: Cricetulus griseus, media alone 100%; for activity at 0.1 µM: read-out: % Recovery of protein expression (100 nM test compound). In short, it runs like this:
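CHO cells pretreated 2 h with 1 μM compound (unstressed), or 1 h with 100 nM or 1 μM then co-treated with 300 nM Tg. Pulse-labelled with 10 μg/ml puromycin for 30 min, then anti-puromycin western blot with densitometry. Unstressed values normalized to media alone (100%); stressed recovery scaled between media alone (100%) and Tg alone (0%).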

A further test concerns ATF4. In words: ATF4 expression inhibition assay (thapsigargin-stressed HEK293T cells, western blot). Type of test: cell-based. To be noted: Homo sapiens, HEK-293T; for pIC50: 3 h with 100 nM Tg, test compound 1 nM to 1 μM; for inhibition at 0.1 µM: 3 h with 100 nM thapsigargin (Tg) and 100 nM test compound; for inhibition at 0.1 µM / inhibition at 1 µM: Tg alone 0%, untreated 100%; for inhibition at 1 µM: 3 h with 100 nM thapsigargin (Tg) and 1 μM test compound. In short, it runs like this:
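HEK293T cells treated with thapsigargin (Tg) plus test compound (100 nM or 1 μM) for 3 hours, then lysed; ATF4 measured by western blot with ECL and densitometry. % inhibition normalized to Tg alone (0%) and untreated cells (100%); IC50 also calculated.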

Setting [2] is: CHO cells stressed with 300 nM Tg, Tg alone 0%.
Where [3] appears, read: CHO cells stressed with 300 nM Tg, Tg alone 0%, read-out: % Recovery of protein expression (1 μM test compound).
Setting [4] is: unstressed CHO cells, 2 h, read-out: % Protein expression relative to untreated (1 μM test compound).

SMILES strings stand for the structures. pIC50: −log10 of the molar value. Like-named read-outs stand apart in the source and are kept apart here.

Take `O=C(COc1ccc(Cl)cc1)NC1CCC(NC(=O)COc2ccc(Cl)cc2)CC1` (centres unmarked) [ISRIB]: the “long-term potentiation (LTP), fEPSP” value in test [1] is “partial LTP recovery”.

One may read the pIC50 as the IC50 on a negative log10 scale, so that one unit is a factor of ten. Lower therefore signals a high IC50. The term inhibition denotes the relative decrease from the control value, in per cent. Higher therefore signals a response far below the control. With `O=C(NC1CCN(C[C@H](O)COc2ccc(Cl)c(F)c2)CC1)c1ccc2cc(Cl)ccc2n1` (single isomer, unassigned) [Compound 152, (+)-6-chloro-N-(1-(3-(4-chloro-3-fluorophenoxy)-2-hydroxypropyl)piperidin-4-yl)quinoline-2-carboxamide], the “ATF4 staining in muscle fiber CSA” value in the test with fasted Balb/c mice was “No staining was detected”. The activity at 0.1 µM with CHO cells (setting [2]) came to 99.1%. Further, the activity at 1 µM in the test with CHO cells (setting [3]) was 280%. Moreover, the activity at 1 µM in the test on CHO cells (setting [4]) turned out to be 239%. In addition, in the test with ATF4, the pIC50 was 7.31, the inhibition at 0.1 µM turned out to be 86% and the inhibition at 1 µM was found to be 91%.

Regarding `O=C(COc1ccc(Cl)c(F)c1)NC1CCN(CC(O)COc2ccc(Cl)c(F)c2)CC1` (centres unmarked) [Compound 13, 2-(4-chloro-3-fluorophenoxy)-N-(1-(3-(4-chloro-3-fluorophenoxy)-2-hydroxypropyl)piperidin-4-yl)acetamide], the activity at 0.1 µM with CHO cells (setting [2]) was determined as 49.6%. Moreover, the activity at 1 µM with CHO cells (setting [3]) was found to be 159%. In the test on CHO cells (setting [4]), the activity at 1 µM was determined as 94%. In the test with ATF4, this compound gave a pIC50 of 7.24, an inhibition at 0.1 µM of 57% and an inhibition at 1 µM of 93%.

The values above are taken from patent US11230542B2, “Inhibitors of integrated stress response pathway” (Praxis Biotech LLC, priority 2017, dated 2022).
